How the values were obtained:
log P value from HPLC = type: physicochemical; settings: 0.1% phosphoric acid/acetonitrile gradient
Protocol: HPLC (0.1% phosphoric acid/acetonitrile; gradient: 90/10 (1) 5%/min, 5/95 (6); flow rate: 1.5 mil/min; UV: 210 nm): Rt=12.57 min; log P value 3.58.

[1] = system: Trichostrongylus colubriformis; assay: In vivo nematode test Trichostrongylus colubriformis/sheep; settings: sheep experimentally infected with Trichostrongylus colubriformis; applied orally and/or intravenously as pure active compound; complete cessation of egg excretion after treatment
Protocol: Trichostrongylus colubriformis/sheep
Sheep which had been experimentally infected with Trichostrongylus colubriformis were treated after the prepotency time of the parasite had elapsed. The active compounds were applied orally and/or intravenously as pure active compound.
(§1) The degree of effectiveness is determined by quantitatively counting the worm eggs which have been excreted with the faeces before and after the treatment.
(§2) A complete cessation of egg excretion after the treatment means that the worms have been aborted or damaged to such an extent that they no longer produce eggs (dosis effectiva).
(§3) Active compounds tested and effective dosage rates (dosis effectiva) can be seen from the table which follows.

Haemonchus contortus = assay: In vivo nematode test Haemonchus contortus/sheep; settings: sheep experimentally infected with Haemonchus contortus; applied orally and/or intravenously as pure active compound; complete cessation of egg excretion after treatment
Protocol: Haemonchus contortus/sheep
Sheep which had been experimentally infected with Haemonchus contortus were treated after the prepotency time of the parasite had elapsed. The active compounds were applied orally and/or intravenously as pure active compound.
as §1, §2, §3

Row | SMILES | chromatographic logP (log P value from HPLC) | Effective dosage (dosis effectiva) [1] | Effective dosage (dosis effectiva) (Haemonchus contortus) | melting point
1 | CCC(C)[C@H]1C(=O)O[C@H](Cc2ccccc2)C(=O)N(C)[C@@H](C(C)CC)C(=O)O[C@H](C)C(=O)N(C)[C@@H](C)C(=O)O[C@H](C)C(=O)N1C (stereo partly drawn) [Example II-1, Cyclo(-N-methyl-L-alanyl-D-lactyl-N-methyl-L-isoleucyl-D-phenyllactyl-N-methyl-L-isoleucyl-D-lactyl-)] | 4.23 | – | – | –
2 | CCC(C)[C@H]1C(=O)O[C@H](Cc2ccc(N3CCOCC3)cc2)C(=O)N(C)[C@@H](C(C)CC)C(=O)O[C@H](C)C(=O)N(C)[C@@H](C)C(=O)O[C@H](C)C(=O)N1C (stereo partly drawn) [Example I-1, Cyclo(-N-methyl-L-alanyl-D-lactyl-N-methyl-L-isoleucyl-D-4-morpholino-phenyllactyl-N-methyl-L-isoleucyl-D-lactyl-)] | 3.58 | 0.25 mg/kg | 0.10 mg/kg | –
3 | CCC(C)[C@H]1C(=O)O[C@H](Cc2ccc([N+](=O)[O-])cc2)C(=O)N(C)[C@@H](C(C)CC)C(=O)O[C@H](C)C(=O)N(C)[C@@H](C)C(=O)O[C@H](C)C(=O)N1C (stereo partly drawn) [Example III-1, Cyclo(-N-methyl-L-alanyl-D-lactyl-N-methyl-L-isoleucyl-D-4-nitro-phenyllactyl-N-methyl-L-isoleucyl-D-lactyl-)] | – | – | – | 122 to 126 °C
4 | CC[C@H](C)[C@H]1C(=O)O[C@H](Cc2cccc(N)c2)C(=O)N(C)[C@@H]([C@@H](C)CC)C(=O)O[C@H](C)C(=O)N(C)[C@@H](C)C(=O)O[C@H](C)C(=O)N1C [Example IV-2, Cyclo(-N-methyl-L-alanyl-D-lactyl-N-methyl-L-isoleucyl-D-3-amino-phenyllactyl-N-methyl-L-isoleucyl-D-lactyl-)] | – | 0.25 mg/kg | 0.05 mg/kg | –
5 | CCC(C)[C@H]1C(=O)O[C@H](Cc2ccc(NCCS(=O)(=O)CCO)cc2)C(=O)N(C)[C@@H](C(C)CC)C(=O)O[C@H](C)C(=O)N(C)[C@@H](C)C(=O)O[C@H](C)C(=O)N1C (stereo partly drawn) [Example I-2, Cyclo(-N-methyl-L-alanyl-D-lactyl-N-methyl-L-isoleucyl-D-4-(2-hydroxyethyl-sulphonyl-ethylamino-phenyl)lactyl-N-methyl-L-isoleucyl-D-lactyl-)] | – | – | 0.10 mg/kg | –
6 | CCC(C)C1C(=O)OC(Cc2ccccc2N)C(=O)N(C)C(C(C)CC)C(=O)OC(C)C(=O)N(C)C(C)C(=O)OC(C)C(=O)N1C [Example IV-1, Cyclo(-N-methyl-L-alanyl-D-lactyl-N-methyl-L-isoleucyl-D-2-amino-phenyllactyl-N-methyl-L-isoleucyl-D-lactyl-)] | – | – | 0.05 mg/kg | –

Reference: patent US7645738B2, “18-membered nitrobenzyl- and aminobenzyl-substituted cyclohexadepsipeptides for controlling endoparasites and a process for their preparation” (Bayer Animal Health GmbH, priority 2003, dated 2010)
